Patent US20250206740A1, “PIPERIDINYL-METHYLPURINE PYRIMIDINES AND RELATED COMPOUNDS AND THEIR USE IN TREATING DISEASES AND CONDITIONS” (K36 Therapeutics, Inc., priority 2022, published 2025)

biological target: recombinant human NSD2 (Homo sapiens (Human), UniProt O96028); assay: NSD2 inhibitory activity, modified RBC HotSpot HMT Assay (radiometric, 3H-SAM, oligonucleosome substrate); assay type: biochemical; conditions: recombinant human NSD2 2 nM, oligonucleosomes from Chicken 0.05 mg/ml, 3H-SAM 1 μM, 1 hour at 30° C.
Sequence (O96028 2-1365 limits assumed): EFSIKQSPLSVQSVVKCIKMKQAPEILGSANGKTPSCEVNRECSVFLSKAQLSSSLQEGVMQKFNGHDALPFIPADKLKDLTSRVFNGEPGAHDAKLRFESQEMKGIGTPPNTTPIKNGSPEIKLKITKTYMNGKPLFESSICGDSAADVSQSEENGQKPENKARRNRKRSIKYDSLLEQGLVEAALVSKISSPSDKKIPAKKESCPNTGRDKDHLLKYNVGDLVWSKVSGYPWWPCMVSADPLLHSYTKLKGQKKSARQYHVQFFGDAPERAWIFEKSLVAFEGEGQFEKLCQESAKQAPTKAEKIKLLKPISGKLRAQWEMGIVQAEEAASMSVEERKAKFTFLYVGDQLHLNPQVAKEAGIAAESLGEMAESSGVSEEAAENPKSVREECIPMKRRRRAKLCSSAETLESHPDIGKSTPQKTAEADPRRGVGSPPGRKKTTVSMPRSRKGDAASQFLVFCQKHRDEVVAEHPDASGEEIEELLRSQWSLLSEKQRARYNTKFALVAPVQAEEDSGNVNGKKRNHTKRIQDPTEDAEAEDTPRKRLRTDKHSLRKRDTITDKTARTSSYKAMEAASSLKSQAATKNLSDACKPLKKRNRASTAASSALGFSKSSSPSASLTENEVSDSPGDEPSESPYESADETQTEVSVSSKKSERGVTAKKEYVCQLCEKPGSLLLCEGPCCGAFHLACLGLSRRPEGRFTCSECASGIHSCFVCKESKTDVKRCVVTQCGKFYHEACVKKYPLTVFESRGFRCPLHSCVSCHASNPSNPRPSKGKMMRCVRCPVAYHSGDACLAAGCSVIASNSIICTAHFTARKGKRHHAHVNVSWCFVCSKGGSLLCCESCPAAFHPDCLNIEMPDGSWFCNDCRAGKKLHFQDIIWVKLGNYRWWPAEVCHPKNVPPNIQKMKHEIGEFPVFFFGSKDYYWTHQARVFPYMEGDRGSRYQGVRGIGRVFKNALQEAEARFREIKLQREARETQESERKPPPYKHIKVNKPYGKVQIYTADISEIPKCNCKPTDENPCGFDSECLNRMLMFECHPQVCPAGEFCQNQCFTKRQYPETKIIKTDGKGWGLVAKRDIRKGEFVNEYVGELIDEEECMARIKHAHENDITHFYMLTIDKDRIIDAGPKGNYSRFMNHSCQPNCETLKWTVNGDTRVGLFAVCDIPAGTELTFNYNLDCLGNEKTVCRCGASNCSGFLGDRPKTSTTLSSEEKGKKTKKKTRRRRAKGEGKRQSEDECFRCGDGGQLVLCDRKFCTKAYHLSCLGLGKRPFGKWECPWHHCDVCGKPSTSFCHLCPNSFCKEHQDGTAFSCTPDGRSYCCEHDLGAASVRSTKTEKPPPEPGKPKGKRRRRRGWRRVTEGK
Procedure: Exemplary compounds were tested for NSD2 inhibitory activity using a modified RBC HotSpot HMT Assay.
A reaction mixture was prepared by adding oligonucleosomes from Chicken (0.05 mg/ml) to freshly prepared reaction buffer containing 50 mM Tris-HCl (pH 8.5), 50 mM NaCl, 5 mM MgCl2, 0.01% Brij35, 1 mM DTT, and 1% DMSO followed by the addition of recombinant human NSD2, (amino acids 2-end) with N-terminal His tag (2 nM; GenBank Accession No. NM_001042424; MW=155.5 kDa; expressed in Sf9 insect cells) and gentle mixing. The test compounds were diluted in DMSO, added to the reaction mixture in nanoliter amounts by using Acoustic Technology (Echo 550, LabCyte Inc. Sunnyvale, CA) and incubated for 20 minutes at room temperature. The reaction was initiated by the addition of S-Adenosyl-L-[methyl-^3H] methionine (3H-SAM; 1 μM), and the mixture was incubated for 1 hour at 30° C. The reaction mixture was delivered to filter paper and the methylated substrate was quantified by scintillation counting. Data analysis was performed using Excel and GraphPad Prism software for IC50 curve fits. For additional information on the histone methyltransferase assay, see, for example, Horiuchi K Y, et al., “Assay Development for Histone Methyltransferases,” Assay Drug Dev Technol. 2013 May; 11 (4): 227-36.

Compound	IC50 [nM]
COc1cc(F)c(-c2ncc(N3CCC[C@](N)([C@H](O)C(F)F)C3)c(Cn3cnc4c(N)ncnc43)n2)cc1F [Compound I-1, (S)-1-((R)-3-amino-1-(4-((6-amino-9H-purin-9-yl)methyl)-2-(2,5-difluoro-4-methoxyphenyl)pyrimidin-5-yl)piperidin-3-yl)-2,2-difluoroethan-1-ol]	100 to 1000
COc1cc(F)c(-c2cc(Cn3cnc4c(N)ncnc43)c(N3CCC[C@](N)([C@H](O)C(F)F)C3)nn2)cc1F [Compound I-6, (S)-1-((R)-3-amino-1-(4-((6-amino-9H-purin-9-yl)methyl)-6-(2,5-difluoro-4-methoxyphenyl)pyridazin-3-yl)piperidin-3-yl)-2,2-difluoroethan-1-ol]	100 to 1000
COc1cc(F)c(-c2nc(Cn3cnc4c(N)ncnc43)c(N3CCC[C@@](N)([C@H](O)C(F)F)C3)s2)cc1F [II-2]	10 to 100
